Results: US8133880B2, “Purine derivatives and methods of use thereof” (Inotek Pharmaceuticals Corporation, priority 2004, dated 2012)

Experiments:
Type in all cases: in vivo
[1] = tested on: BALB/c mice; assay: Asthma-associated inflammation: OVA aerosol exposure and bronchioalveolar lavage
Experimental: Four-week old male, viral-antibody-free BALB/c mice (Jackson Laboratory, Bar Harbor, Me.) were intraperitoneally immunized with 10 μg ovalbumin (“OVA,” Grade III, Sigma Chemical Co., St. Louis, Mo.) and 1 mg alum (diluted from 2% Alhydrogel; Accurate Sci. Corp., Westbury, N.Y.) in 0.5 mL phosphate-buffered saline (“PBS”) on days 0 and 7. Control mice received 1 mg alum in PBS solution on days 0 and 7.
On day 14, both immunized mice and control mice received a single aerosol exposure to 3% OVA (in PBS) for 30 minutes, followed by intraperitoneal administration of Compound 34 (5 μg per mouse in 0.2 mL buffer solution). About 18 hours after treatment, the mice were sacrificed and bronchioalveolar lavage (“BAL”) was performed on their lungs. The fluid obtained from the mice via the BAL procedure was analyzed and the inflammatory cell counts and level of inflammatory mediators in the fluid samples was measured as described in Virag et al., Med. Sci. Monit. 10:BR77-83 (2004).
On day 14, both immunized mice and control mice received a single aerosol exposure to 3% OVA (in PBS) for 30 minutes, followed by intraperitoneal administration of Compound 24 (5 μg per mouse in 0.2 mL buffer solution). About 18 hours after treatment, the mice were sacrificed and bronchioalveolar lavage (“BAL”) was performed on their lungs. The fluid obtained from the mice via the BAL procedure was analyzed and the inflammatory cell counts and level of inflammatory mediators in the fluid samples was measured as described in Virag et al., Med. Sci. Monit. 10:BR77-83 (2004).

[2] = tested on: BALB/c mice; assay: LPS-induced chemokine and cytokine response (serum TNF-α, MIP-1α by ELISA); settings: for Serum TNF-α mean / Serum MIP-1α mean: serum ninety minutes after LPS
Experimental: (§1) Male BALB/c mice were intraperitoneally administered Compound 54 (at a dose of either 0.3 mg/kg or 1.0 mg/kg) over a 30-minute period. Lipopolysaccharide (LPS) was then administered intraperitoneally at a dose of 1 mg/kg. Ninety minutes after LPS administration, serum was collected and the levels of MIP-1α and TNF-α were analyzed using specific ELISA.
as §1, with “34” for “54”, “0.03” for “either 0.3”, “0.1” for “1.0”, “30 minute” for “30-minute”

[3] = tested on: mice; assay: TPA-induced dermatitis of the ear (ear weight, MPO); settings: for Right ear (treated) Mean Weight: 10 μL topical, biopsy six hours after application, normal saline 20.2; for Right ear (treated) MPO: ear biopsy six hours after application, normal saline 18.4; for Difference (right minus left ear weight): normal saline 10.1; for Difference (MPO right minus left ear): normal saline 16.8; for Left ear (untreated) MPO / Left ear (untreated) Mean Weight: left ear DMSO vehicle only
Experimental: Dermatitis was induced in the right ear of unanesthetized mice via the topical application of 12-O-tetradecanoylphorbol-13-acetate (TPA) (10 μL, 1% in DMSO) on both the inner and outer surfaces of the right ear. The left ear of each mouse had only vehicle (DMSO, 10 μL) topically applied on both the inner and outer surfaces.
Immediately after application of TPA, the mice were topically treated on the inner and outer surfaces of their right ear only with either: (1) Compound 43 (10 μL, 0.1% in normal saline), (2) Compound 43 (10 μL, 0.3% in normal saline), or (3) normal saline (10 μL).
Six hours after the application of Compound 43 or normal saline, the animals were euthanized using CO2 asphyxiation and a ¼ inch biopsy of both the left and right ear was taken and weighed. The biopsy samples were then analyzed for myloperoxidase (MPO) activity as a marker of neutrophil infiltration using standard methods.

[4] = tested on: Swiss Webster mice; assay: Dextran sodium sulfate-induced colitis; settings: for visual score (1-4) of colon damage: 1 = no damage, 4 = extensive damage, vehicle 2; for Colon Length: twice daily by gavage, seven days with DSS, vehicle 3.97; for MDA / MPO: colon biopsy; for MDA: vehicle 8.7; for MPO: vehicle 209
Experimental: Colitis was induced in Swiss Webster mice by administration of dextran sodium sulfate (DSS) (5%, dissolved in distilled water, molecular weight 30-40 kDa) ad libitum for a total period of seven days. During this seven-day period, and concomitant with the administration of DSS, the mice were separately administered Compound 54 twice daily by gavage at a total daily dose of 0.1 mg/kg/day, 0.3 mg/kg/day or 1 mg/kg/day. At the end of the seventh day of administration of both DSS and Compound 54, the mice were euthanized and their colon was removed, measured, visually analyzed and colon biopsy samples were analyzed for malondialdehyde (MDA) and myeloperoxidase (MPO) levels.

[5] = 5 μg per mouse i.p., BAL fluid about 18 hours after treatment
[6] = animals given 0.1% on the right ear
[7] = animals given 0.3% on the right ear

CCNC(=O)[C@H]1O[C@@H](n2cnc3c(N)nc(N/N=C/C4CCC=CO4)nc32)[C@H](O)[C@@H]1O (mixture of isomers) [Compound 34]
inflammatory cell infiltration into the BAL fluid, reduction ([1]; 5 μg per mouse i.p. after OVA aerosol, BAL about 18 hours after treatment, treated vs. control animals, p<0.01): 70±19% | MIP-1α levels, reduction relative to control [1, 5]: 74% | TNF-α levels, reduction relative to control [1, 5]: 30% | white blood cell counts, reduction relative to control [1, 5]: 70% | MIP-1α ([1]; BAL fluid, 5 μg per mouse i.p., untreated mice 58 ± 19): 15 ± 5 pg/mL | TNF-α ([1]; BAL fluid, 5 μg per mouse i.p., untreated mice 81 ± 27): 56 ± 18 pg/mL | Serum TNF-α mean ([2]; 0.03 mg/kg i.p. before LPS 1 mg/kg i.p., LPS alone 1949): 814 pg/mL | Serum MIP-1α mean ([2]; 0.03 mg/kg i.p. before LPS 1 mg/kg i.p., LPS alone 2544): 1182 pg/mL | LPS-induced increase in TNF-α and MIP-1α ([2]; 0.03 mg/kg or 0.1 mg/kg i.p.): dose-dependently reduces | Serum TNF-α mean ([2]; 0.1 mg/kg i.p. before LPS 1 mg/kg i.p., LPS alone 1949): 552 pg/mL | Serum MIP-1α mean ([2]; 0.1 mg/kg i.p. before LPS 1 mg/kg i.p., LPS alone 2544): 981 pg/mL

CCNC(=O)[C@H]1O[C@@H](n2cnc3c(N)nc(N/N=C/[C@H]4CCC=CO4)nc32)[C@H](O)[C@@H]1O [Compound 43]
MPO levels in the treated right ears ([3]; 0.1% and 0.3% topical, compared to TPA and normal saline): decreased | elevated weight in the right ear caused by the TPA-induced dermatitis ([3]; 0.1% and 0.3% topical, compared to animals receiving normal saline only): reduced in a dose-dependent fashion | Right ear (treated) Mean Weight ([3]; 0.1% in normal saline): 17.7 mg | Right ear (treated) MPO ([3]; 0.1% topical): 1.04 ug/sample | Difference (right minus left ear weight) ([3]; 0.1% topical): 5.3 mg | Difference (MPO right minus left ear) ([3]; 0.1% topical): 0.67 | Right ear (treated) Mean Weight ([3]; 0.3% in normal saline): 13.6 mg | Right ear (treated) MPO ([3]; 0.3% topical): 3.34 ug/sample | Difference (right minus left ear weight) ([3]; 0.3% topical): 0.1 mg | Difference (MPO right minus left ear) ([3]; 0.3% topical): 1.65 | Left ear (untreated) MPO [3, 6]: 0.37 ug/sample | Left ear (untreated) Mean Weight [3, 6]: 12.4 mg | Left ear (untreated) MPO [3, 7]: 1.69 ug/sample | Left ear (untreated) Mean Weight [3, 7]: 13.5 mg

CNC(=O)[C@H]1O[C@@H](n2cnc3c(NC)nc(C#N)nc32)[C@H](O)[C@@H]1O [Compound 54]
colon shortening ([4]; 0.1, 0.3 or 1 mg/kg/day, compared to animals treated with vehicle): protected against colon shortening | levels of MDA and MPO ([4]; 0.1, 0.3 or 1 mg/kg/day, dose-dependent, compared to animals treated with vehicle): lowered | visual score (1-4) of colon damage ([4]; Dose 0.1 mg/ml): 1.5 | Colon Length ([4]; Dose 0.1 mg/ml): 4.95 cm | visual score (1-4) of colon damage ([4]; Dose 0.3 mg/ml): 1.2 | Colon Length ([4]; Dose 0.3 mg/ml): 5.51 cm | visual score (1-4) of colon damage ([4]; Dose 1 mg/ml): 1.4 | Colon Length ([4]; Dose 1 mg/ml): 5.87 cm | MDA ([4]; Dose 0.1 mg/ml): 7.4 nmol/mg protein | MPO ([4]; Dose 0.1 mg/ml): 345 mμ/mg protein | MDA ([4]; Dose 0.3 mg/ml): 7.4 nmol/mg protein | MPO ([4]; Dose 0.3 mg/ml): 138 mμ/mg protein | MDA ([4]; Dose 1 mg/ml): 4.4 nmol/mg protein | MPO ([4]; Dose 1 mg/ml): 30 mμ/mg protein | Serum MIP-1α mean ([2]; 0.3 mg/kg i.p. before LPS 1 mg/kg i.p., LPS alone 4150): 4298 pg/mL | Serum TNF-α mean ([2]; 0.3 mg/kg i.p. before LPS 1 mg/kg i.p., LPS alone 9741): 5733 pg/mL | LPS-induced increase in TNF-α and MIP-1α ([2]; 0.3 mg/kg or 1.0 mg/kg i.p.): dose-dependently reduces | Serum MIP-1α mean ([2]; 1.0 mg/kg i.p. before LPS 1 mg/kg i.p., LPS alone 4150): 3906 pg/mL | Serum TNF-α mean ([2]; 1.0 mg/kg i.p. before LPS 1 mg/kg i.p., LPS alone 9741): 3727 pg/mL
